# EP0603240B1, “SAFENING HERBICIDAL PYRAZOLYLSULFONYLUREAS” (priority 1991, dated 1993)
# Structures can show the parent of a compound that is named as a salt. Where two headings read alike, the source gives them in different places.
# Legend:
# corn [1] = test: Example 25, greenhouse preemergence test: Antidote Nos. 1 and 2 against Herbicide Nos. 1-3; assay type: in vivo, Corn (Pioneer 3424 variety); settings: no antidote
# Procedure: The chemicals were tested in both preemergence and post-emergence modes of application. The herbicides were prepared and applied as wettable powders; dichlormid was applied as an emulsifiable concentrate, while the naphthalic anhydride was applied as a coating on the corn seed prior to planting.
# Test data from the preemergence tests are shown in Table 25A and from the post-emergence tests in Table 25B. In the tables, the concentration of chemicals is shown in terms of active ingredient in grams per hectare (G/ha); concentrations of the naphthalic anhydride were not measured per se, but were present as in conventional, normally-coated applications. Corn injury is shown in terms of percent inhibition of growth.
# corn [2] = test: Example 12, Procedure II: Herbicide No. 1 + acetochlor (No. 6) with thirteen antidotes; assay type: in vivo
# Procedure: (§1) Containers were filled and compacted with a fumigated silt loam top soil to a depth of about 1.3 cm from the top of the container. A first container was designated as an untreated control, a second container was designated as a herbicide control, and a third container was designated as a herbicide + antidote test container. Each of the containers was seeded with a crop species. A measured amount of herbicide dispersed or dissolved in acetone was applied to a measured quantity of soil. To this same quantity of soil treated with herbicide, there was added a measured amount of antidote dispersed or dissolved in acetone. The quantity of soil treated with the herbicide and antidote was thoroughly mixed to incorporate the herbicide and antidote in the soil uniformly. The seed bed in the third container of soil was covered with the soil treated with the herbicide and antidote and the container was leveled. For each test series, the seed beds of the first and second containers were likewise covered by soil layers. the cover layer of the first container was not treated with herbicide or antidote.
# (§2) The containers were then placed on a bench in a greenhouse and sub-irrigated as required for the duration of the test. […] Plant response is measured in terms of percent injury. Antidote efficacy is indicated as the difference in plant injury by the herbicide(s) without the antidote and with the antidote.
# (§3) This procedure is the same as Procedure I, but modified in the manner that after incorporation of the chemicals (herbicide and antidote) the containers with the covered seedbed were treated with an initial overhead irrigation equivalent to 0.6 cm rainfall, then subsequently sub-irrigated as required on greenhouse benches.
# This example was designed to investigate the efficacy of thirteen different antidotes from different classes of chemistry as safeners against compositions of Herbicide No. 1 and acetochlor (Herbicide No. 6) as co-herbicide. Acetochlor is the active ingredient in the commercial herbicides GUARDIAN® and WENNER®.
# The test procedure used in this example was Procedure II described above.
# [3] = system: barnyardgrass (Echinochloa crusgalli); test: Example 3, Procedure I: antidotes against Herbicide No. 1; assay type: in vivo
# Procedure: as §1, §2
# (§4) In the series of greenhouse tests described below, for routine screening purposes the herbicide/antidote compositions were tested in crop/weed combinations involving corn as the crop and either or both of the weeds barnyardgrass (Echinochloa crusgalli), a monocotyledonous weed, and velvetleaf (Abutilon theophrasti), a dicotyledonous weed. In the tables below, these weeds are indicated by the symbols "BYG" and "VL", respectively.
# (§5) This example details the results of tests with Antidote Nos. 12, 15 and 16 to safen Herbicide No. 1 over application rates ranging from 4.48 kg/ha down to 0.56 kg/ha, in corn in the presence of barnyardgrass. Procedure I described above was used in these tests.
# corn [4] = test: as above; assay type: in vivo
# Procedure: as §1, §2, §5
# corn [5] = test: Example 24, Procedure II: Herbicide No. 1 + co-herbicides Nos. 4, 6, 7, 12 with Antidote Nos. 15 and 17-21; assay type: in vivo; settings: antidote 2.24 kg/ha; highest test rate (0.56 kg/ha) of Herbicide No. 1 + co-herbicide
# Procedure: as §1, §2, §3
# In other greenhouse tests, using Procedure II described above, the safening efficacy of Antidote Nos. 15 and 17-21 was evaluated against Herbicide No. 1 in corn in the presence of Giant foxtail (Setaria fabergi) and Velvetleaf (Abutilon theophrasti) as representative annual monocotyledonous and dicotyledonous weeds, respectively.
# Test results are shown in Tables 23A and 23B wherein the indicated plant inhibition represents the average of duplicate replications, with observations being made thirteen (13) days after application of the chemicals. Giant foxtail and Velvetleaf are represented by the symbols "GFT" and "VL", respectively. The data in Table 23A show the test results using the antidotes at 2.24 kg/ha, whereas in Table 23B, the antidotal rate was reduced to 0.56 kg/ha.
# The tests described in Example 23 were duplicated, but in this example a variety of co-herbicides were included to ascertain the efficacy of the antidotes against combinations of Herbicide No. 1 and Herbicides Nos. 4, 6, 7 and 12 as co-herbicides. Test results are shown in Table 24, wherein the antidote application rate was 2.24 kg/ha.
# corn [6] = test: Example 7, Procedure II: Herbicide No. 1 + metolachlor (No. 12) with antidotes; assay type: in vivo; settings: Herbicide No.12 3.36 kg/ha alone
# Procedure: as §1, §2, §3
# (§6) In this example, Procedure II described above was followed. The data from the tests in this example is shown in Table 6 and represents averages of duplicate replications.
# (§7) The tests in this example followed the same procedure and antidotes used in Example 6. However, Herbicide No. 12 (metolachlor) was used as the co-herbicide with Herbicide No. 1.
# [7] = system: barnyardgrass (Echinochloa crusgalli); test: as above; assay type: in vivo; settings: Herbicide No.12 3.36 kg/ha alone
# Procedure: as §1, §2, §3, §4, §6, §7
# [8] = system: velvetleaf (Abutilon theophrasti); test: as above; assay type: in vivo; settings: Herbicide No.12 3.36 kg/ha alone
# Procedure: as §1, §2, §3, §4, §6, §7
# [9] = system: velvetleaf (Abutilon theophrasti); test: Example 20, Procedure II: Herbicide No. 1 + EPTC or ERADICANE EXTRA with Antidote Nos. 5 and 15; assay type: in vivo
# Procedure: as §1, §2, §3, §4
# (§8) This example describes experiments designed to test two generally efficacious antidotal compounds, i.e., Antidote Nos. 5 and 15, against the herbicidal action of the sulfonylurea compound, Herbicide No. 1, and the commercial herbicides EPTC (Herbicide No. 4) and ERADICANE® EXTRA (EPTC + R-29148, Antidote No. 5). Procedure II above was used in conducting these experiments. Formulations of EPTC and ERADICANE EXTRA were applied onto soil cover layers (to be applied over seed beds), followed by sequential pipetting of Herbicide No. 1 and Antidote No. 15. The soil was mixed to homogeneity and spread over the seed beds followed by 0.6 cm of overhead irrigation.
# corn [10] = test: as above; assay type: in vivo
# Procedure: as §1, §2, §3, §8
# [11] = system: barnyardgrass (Echinochloa crusgalli); test: Example 6, Procedure II: Herbicide No. 1 + alachlor (No. 7) with antidotes; assay type: in vivo; settings: Herbicide No.7 4.48 kg/ha alone
# Procedure: as §1, §2, §3, §4
# (§9) This example was designed to investigate the antidotal efficacy of a plurality of antidotal compounds against a composition comprising Herbicide No. 1 in combination with Herbicide No. 7 (alachlor). The antidotal compounds used herein were Nos. 1, 2, 7, 13 and 15.
# as §6
# [12] = system: velvetleaf (Abutilon theophrasti); test: as above; assay type: in vivo; settings: Herbicide No.7 4.48 kg/ha alone
# Procedure: as §1, §2, §3, §4, §9, §6
# corn [13] = test: as above; assay type: in vivo; settings: Herbicide No.7 4.48 kg/ha alone
# Procedure: as §1, §2, §3, §9, §6
# [14] = system: barnyardgrass (Echinochloa crusgalli); test: Example 8, Procedure II: Herbicide No. 1 + butachlor (No. 9) with antidotes; assay type: in vivo; settings: Herbicide No.9 2.24 kg/ha alone
# Procedure: as §1, §2, §3, §4
# (§10) In this test, the efficacy of the same five antidotes used in Examples 6 and 7 was investigated in compositions comprising Herbicide No. 1 and as a co-herbicide, butachlor (Herbicide No. 9), active ingredient in MACHETE® herbicide, a leading commercial rice herbicide. The test procedure used in this example was the same as that in Examples 6 and 7.
# [15] = system: velvetleaf (Abutilon theophrasti); test: as above; assay type: in vivo; settings: Herbicide No.9 2.24 kg/ha alone
# Procedure: as §1, §2, §3, §4, §10
# corn [16] = test: as above; assay type: in vivo; settings: Herbicide No.9 2.24 kg/ha alone
# Procedure: as §1, §2, §3, §10
# [17] = Herb. No. 1 0.56 kg/ha + antidote 0.56 kg/ha
# [18] = Herb. No. 1 0.56 kg/ha + antidote 2.24 kg/ha
# [19] = Herb. No. 1 0.56 kg/ha + antidote 8.96 kg/ha
# [20] = Herb. No. 1 1.12 kg/ha + antidote 0.56 kg/ha
# [21] = Herb. No. 1 1.12 kg/ha + antidote 2.24 kg/ha
# [22] = Herb. No. 1 1.12 kg/ha + antidote 8.96 kg/ha
# [23] = Herb. No. 1 2.24 kg/ha + antidote 0.56 kg/ha
# [24] = Herb. No. 1 2.24 kg/ha + antidote 2.24 kg/ha
# [25] = Herb. No. 1 2.24 kg/ha + antidote 8.96 kg/ha
# [26] = Herb. No. 1 4.48 kg/ha + antidote 0.56 kg/ha
# [27] = Herb. No. 1 4.48 kg/ha + antidote 2.24 kg/ha
# [28] = Herb. No. 1 4.48 kg/ha + antidote 8.96 kg/ha
# [29] = antidote 8.96 kg/ha alone, no herbicide
# [30] = Herbicide No. 4 2.24 kg/ha alone
# [31] = Herbicide No. 4 4.48 kg/ha alone
# [32] = Herbicide No. 4 6.72 kg/ha alone
molecule,measurement,setting,value
"CCOC(=O)c1cnn(C)c1S(=O)(=O)NC(=O)Nc1nc(OC)cc(OC)n1 [Herbicide No. 3, N-[(4,6-dimethoxypyrimidin-2-yl)aminocarbonyl]-4-ethoxycarbonyl-1-methylpyrazole-5-sulfonamide]",inhibition at 0.07 g/ha,"corn [1]; Zea mays, pre-emergence, Preemergence, herbicide alone 0.07 G/ha",19.1%
same,inhibition at 0.25 g/ha,"corn [1]; Zea mays, pre-emergence, Preemergence, herbicide alone 0.25 G/ha, read-out: % Inhibition Corn",80.9%
same,inhibition at 0.74 g/ha,"corn [1]; Zea mays, pre-emergence, Preemergence, herbicide alone 0.74 G/ha",80.9%
same,inhibition at 0.25 g/ha,"corn [1]; Zea mays, pre-emergence, preemergence, Herbicide No. 3 0.25 G/ha, read-out: corn injury, percent inhibition of growth",80.9%
"N#CC(=NOCC1OCCO1)c1ccccc1 [Antidote No. 6, Benzeneacetonitrile, α-{[(1,3-dioxolan-2-yl)methoxy]imino}-]","safening of corn, assessment in words",corn [2]; Herbicide No. 1:Herbicide 6:Antidote 0.14:2.24:2.24 kg/ha,performed at commercial levels
same,"safening of corn, assessment in words",corn [2]; Herbicide No. 1:Herbicide 6:Antidote 0.14:2.24:8.96 kg/ha,performed at commercial levels
CC1(C)OC(c2cccs2)CN1C(=O)C(Cl)Cl (stereo not drawn) [compound 11],% Injury BYG,[3]; [17],70%
same,% Injury BYG,[3]; [18],20%
same,% Injury BYG,[3]; [19],0%
same,% Injury BYG,[3]; [20],80%
same,% Injury BYG,[3]; [21],15%
same,% Injury BYG,[3]; [22],0%
same,% Injury BYG,[3]; [23],75%
same,% Injury BYG,[3]; [24],30%
same,% Injury BYG,[3]; [25],0%
same,% Injury BYG,[3]; [26],80%
same,% Injury BYG,[3]; [27],80%
same,% Injury BYG,[3]; [28],50%
same,% Injury BYG,[3]; [29],0%
same,% Injury Corn,corn [4]; [17],15%
same,% Injury Corn,corn [4]; [18],0%
same,% Injury Corn,corn [4]; [19],0%
same,% Injury Corn,corn [4]; [20],5%
same,% Injury Corn,corn [4]; [21],0%
same,% Injury Corn,corn [4]; [22],0%
same,% Injury Corn,corn [4]; [23],30%
same,% Injury Corn,corn [4]; [24],0%
same,% Injury Corn,corn [4]; [25],0%
same,% Injury Corn,corn [4]; [26],50%
same,% Injury Corn,corn [4]; [27],30%
same,% Injury Corn,corn [4]; [28],5%
same,% Injury Corn,corn [4]; [29],15%
"CC1COc2ccccc2N1C(=O)C(Cl)Cl (stereo not drawn) [Antidote No. 17, 4-(Dichloroacetyl)-3,4-dihydro-3-methyl-2H-1,4-benzoxazine]","safening of corn, assessment in words",corn [5],failed to safen
"CCc1cccc(C)c1N(C(=O)CCl)C(C)COC (stereo not drawn) [Herbicide No. 12, 2-Chloro-N-(2-methoxy-1-methylethyl)-6'-ethyl-o-acetotoluidide, reference compound]",% Injury Corn,corn [6],0%
same,% Injury BYG,[7],100%
same,% Injury VL,[8],20%
CCCN(CCC)C(=O)SCC [No. 4],% Injury VL,[9]; [30],0%
same,% Injury VL,[9]; [31],0%
same,% Injury VL,[9]; [32],18%
same,% Injury Corn,corn [10]; [30],0%
same,% Injury Corn,corn [10]; [31],0%
same,% Injury Corn,corn [10]; [32],10%
"CCc1cccc(CC)c1N(COC)C(=O)CCl [Herbicide No. 7, 2-Chloro-2',6'-diethyl-N-(methoxymethyl)acetanilide, reference compound]",% Injury BYG,[11],100%
same,% Injury VL,[12],25%
same,% Injury Corn,corn [13],10%
"CCOCN(C(=O)CCl)c1c(C)cccc1CC [Herbicide No. 6, 2-Chloro-N-(ethoxymethyl)-6'-ethyl-o-acetoluidide, reference compound]",injury to corn,"corn [2]; Herbicide No. 6 2.24 kg/ha, without an antidote",25%
"N-[(4,6-dimethoxypyridin-2-yl)aminocarbonyl]-3-chloro-4-ethoxycarbonyl-1-methylpyrazole-5-sulfonamide [Herbicide No. 2]",% Inhibition Corn,"corn [1]; Preemergence, herbicide alone 0.25 G/ha",21.7%
same,% Inhibition Corn,"corn [1]; Preemergence, herbicide alone 0.74 G/ha",36.4%
same,% Inhibition Corn,"corn [1]; Preemergence, herbicide alone 2.5 G/ha",42.7%
"COC(=O)COC(c1ccccc1)c1ccccc1 [Antidote No. 20, Acetic acid, (diphenylmethoxy)-, methyl ester]","safening of corn, assessment in words",corn [5],failed to safen
"O=C(O)COC(c1ccccc1)c1ccccc1 [Antidote No. 18, Acetic acid, (diphenylmethoxy)- sodium salt, hemihydrate]","safening of corn, assessment in words",corn [5],failed to safen
"CCCCOCN(C(=O)CCl)c1c(CC)cccc1CC [Herbicide No. 9, 2-Chloro-2',6'-diethyl-N-(butoxymethyl)acetanilide, reference compound]",% Injury BYG,[14],99%
same,% Injury VL,[15],25%
same,% Injury Corn,corn [16],5%
